# Measured values reported in publication PMC5372246, “Co-production of hydrogen and ethanol from glucose in Escherichia coli by activation of pentose-phosphate pathway through deletion of phosphoglucose isomerase (pgi) and overexpression of glucose-6-phosphate dehydrogenase (zwf) and 6-phosphogluconate dehydrogenase (gnd)” (Biotechnology for Biofuels, 2017).
# Legend:
# [1] = molecular target: T1, Zwf (ZE), glucose-6-phosphate dehydrogenase (Escherichia coli, UniProt P0AC53); assay: inhibition of purified enzyme, NADPH formation at […] nm; assay type: biochemical
# T1 construct: full-length, C-terminal His-tag, Ni-NTA purified from E. coli, 55 kDa on SDS-PAGE
# T1 sequence (P0AC53 whole entry): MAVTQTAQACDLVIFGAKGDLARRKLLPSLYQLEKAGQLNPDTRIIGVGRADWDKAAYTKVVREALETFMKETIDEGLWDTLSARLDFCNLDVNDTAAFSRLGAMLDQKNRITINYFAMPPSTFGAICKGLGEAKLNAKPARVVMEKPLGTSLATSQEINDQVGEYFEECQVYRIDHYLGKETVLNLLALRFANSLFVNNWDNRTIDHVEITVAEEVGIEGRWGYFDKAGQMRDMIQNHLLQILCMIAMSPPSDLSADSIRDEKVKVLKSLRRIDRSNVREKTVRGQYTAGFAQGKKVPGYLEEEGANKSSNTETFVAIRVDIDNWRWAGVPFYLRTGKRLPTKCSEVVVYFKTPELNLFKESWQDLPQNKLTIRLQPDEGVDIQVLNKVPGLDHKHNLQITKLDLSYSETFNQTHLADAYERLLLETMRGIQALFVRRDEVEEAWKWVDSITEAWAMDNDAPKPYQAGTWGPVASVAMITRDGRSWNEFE
# [2] = molecular target: T2, Gnd (GE), 6-phosphogluconate dehydrogenase (Escherichia coli, UniProt P00350); assay: as above; assay type: biochemical
# T2 construct: full-length, C-terminal His-tag, Ni-NTA purified from E. coli, 51 kDa on SDS-PAGE
# T2 sequence (P00350 1-468): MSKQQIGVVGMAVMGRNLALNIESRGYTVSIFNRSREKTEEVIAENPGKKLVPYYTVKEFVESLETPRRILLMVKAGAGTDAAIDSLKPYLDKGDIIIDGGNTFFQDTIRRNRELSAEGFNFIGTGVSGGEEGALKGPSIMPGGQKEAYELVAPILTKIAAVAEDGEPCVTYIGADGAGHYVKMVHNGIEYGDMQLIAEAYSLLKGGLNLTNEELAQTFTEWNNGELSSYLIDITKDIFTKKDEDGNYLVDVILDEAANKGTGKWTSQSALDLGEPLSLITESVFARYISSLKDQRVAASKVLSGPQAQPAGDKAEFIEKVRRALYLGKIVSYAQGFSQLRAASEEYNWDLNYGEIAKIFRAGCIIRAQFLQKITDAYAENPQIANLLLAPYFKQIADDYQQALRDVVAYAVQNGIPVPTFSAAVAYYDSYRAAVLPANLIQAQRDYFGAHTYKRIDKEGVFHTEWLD
smiles,measurement,setting,value
NC(=O)C1=CN([C@@H]2O[C@H](COP(=O)(O)OP(=O)(O)OC[C@H]3O[C@@H](n4cnc5c(N)ncnc54)[C@H](OP(=O)(O)O)[C@@H]3O)[C@@H](O)[C@H]2O)C=CC1 [NADPH],Ki,[1],~40 µM
same,Ki,[2],~40 µM
